Assay results published in ChEMBL document CHEMBL5385976, “Recognition of arylmethylidene derivatives of imidazothiazolotriazinones as novel tubulin polymerization inhibitors” (RSC Med Chem, 2024).

Assays:
Assay type in all cases: functional
BT-549 = experiment: Anticancer activity against human BT-549 cells assessed as cell growth at 10 umol/L incubated for 48 hrs by SRB assay relative to control; details: BT-549, 48 h, dose 10 µmol/L, read-out: Activity
SW-620 = experiment: Anticancer activity against human SW620 cells assessed as cell growth at 10 umol/L incubated for 48 hrs by SRB assay relative to control; details: SW-620, 48 h, dose 10 µmol/L, read-out: Activity
IGROV-1 = experiment: Anticancer activity against human IGROV-1 cells assessed as cell growth at 10 umol/L incubated for 48 hrs by SRB assay relative to control; details: IGROV-1, 48 h, dose 10 µmol/L, read-out: Activity
NCI-H226 = experiment: Anticancer activity against human NCI-H226 cells assessed as cell growth at 10 umol/L incubated for 48 hrs by SRB assay relative to control; details: NCI-H226, 48 h, dose 10 µmol/L, read-out: Activity
KM12 = experiment: Anticancer activity against human KM12 cells assessed as cell growth at 10 umol/L incubated for 48 hrs by SRB assay relative to control; details: KM12, 48 h, dose 10 µmol/L, read-out: Activity
NCI/ADR-RES = experiment: Anticancer activity against human NCI-ADR-RES cells assessed as cell growth at 10 umol/L incubated for 48 hrs by SRB assay relative to control; details: dose 10 µmol/L, read-out: Activity
SNB-75 = experiment: Anticancer activity against human SNB-75 cells assessed as cell growth at 10 umol/L incubated for 48 hrs by SRB assay relative to control; details: SNB-75, 48 h, dose 10 µmol/L, read-out: Activity
[1] = test system: Panel NCI-60 (60 carcinoma cell lines); experiment: Antiproliferative activity against human panel NCI-60 (60 carcinoma cell lines) assessed as mean cell growth at 10 umol/L incubated for 48 hrs by SRB assay relative to control; details: dose 10 µmol/L, at 10 µM
U-251 = experiment: Anticancer activity against human U-251 cells assessed as cell growth at 10 umol/L incubated for 48 hrs by SRB assay relative to control; details: U-251, 48 h, dose 10 µmol/L, read-out: Activity
UO-31 = experiment: Anticancer activity against human UO-31 cells assessed as cell growth at 10 umol/L incubated for 48 hrs by SRB assay relative to control; details: UO-31, 48 h, dose 10 µmol/L, read-out: Activity
CCRF-CEM = experiment: Anticancer activity against human CCRF-CEM cells assessed as cell growth at 10 umol/L incubated for 48 hrs by SRB assay relative to control; details: dose 10 µmol/L, read-out: Activity
SK-MEL-5 = experiment: Anticancer activity against human SK-MEL-5 cells assessed as cell growth at 10 umol/L incubated for 48 hrs by SRB assay relative to control; details: SK-MEL-5, 48 h, dose 10 µmol/L, read-out: Activity
A549 = experiment: Anticancer activity against human A549 cells assessed as cell growth at 10 umol/L incubated for 48 hrs by SRB assay relative to control; details: A549, 48 h, dose 10 µmol/L, read-out: Activity
ACHN = experiment: Anticancer activity against human ACHN cells assessed as cell growth at 10 umol/L incubated for 48 hrs by SRB assay relative to control; details: dose 10 µmol/L, read-out: Activity
M14 = experiment: Anticancer activity against human M14 cells assessed as cell growth at 10 umol/L incubated for 48 hrs by SRB assay relative to control; details: M14, 48 h, dose 10 µmol/L, read-out: Activity
MCF7 = experiment: Anticancer activity against human MCF7 cells assessed as cell growth at 10 umol/L incubated for 48 hrs by SRB assay relative to control; details: MCF7, 48 h, dose 10 µmol/L, read-out: Activity
NCI-H322M = experiment: Anticancer activity against human NCI-H322M cells assessed as cell growth at 10 umol/L incubated for 48 hrs by SRB assay relative to control; details: dose 10 µmol/L, read-out: Activity
EKVX = experiment: Anticancer activity against human EKVX cells assessed as cell growth at 10 umol/L incubated for 48 hrs by SRB assay relative to control; details: dose 10 µmol/L, read-out: Activity
K562 = experiment: Anticancer activity against human K562 cells assessed as cell growth at 10 umol/L incubated for 48 hrs by SRB assay relative to control; details: K562, 48 h, dose 10 µmol/L, read-out: Activity
SR = experiment: Anticancer activity against human SR cells assessed as cell growth at 10 umol/L incubated for 48 hrs by SRB assay relative to control; details: dose 10 µmol/L, read-out: Activity
NCI-H522 = experiment: Anticancer activity against human NCI-H522 cells assessed as cell growth at 10 umol/L incubated for 48 hrs by SRB assay relative to control; details: NCI-H522, 48 h, dose 10 µmol/L, read-out: Activity
RPMI-8226 = experiment: Anticancer activity against human RPMI-8226 cells assessed as cell growth at 10 umol/L incubated for 48 hrs by SRB assay relative to control; details: RPMI-8226, 48 h, dose 10 µmol/L, read-out: Activity
MDA-MB-435 = experiment: Anticancer activity against human MDA-MB-435 cells assessed as cell growth at 10 umol/L incubated for 48 hrs by SRB assay relative to control; details: MDA-MB-435, 48 h, dose 10 µmol/L, read-out: Activity
OVCAR-5 = experiment: Anticancer activity against human OVCAR-5 cells assessed as cell growth at 10 umol/L incubated for 48 hrs by SRB assay relative to control; details: OVCAR-5, 48 h, dose 10 µmol/L, read-out: Activity
HCT-116 = experiment: Anticancer activity against human HCT-116 cells assessed as cell growth at 10 umol/L incubated for 48 hrs by SRB assay relative to control; details: HCT-116, 48 h, dose 10 µmol/L, read-out: Activity
Hs-578T = experiment: Anticancer activity against human Hs-578T cells assessed as cell growth at 10 umol/L incubated for 48 hrs by SRB assay relative to control; details: dose 10 µmol/L, read-out: Activity
PC-3 = experiment: Anticancer activity against human PC-3 cells assessed as cell growth at 10 umol/L incubated for 48 hrs by SRB assay relative to control; details: PC-3, 48 h, dose 10 µmol/L, read-out: Activity
HOP-62 = experiment: Anticancer activity against human HOP-62 cells assessed as cell growth at 10 umol/L incubated for 48 hrs by SRB assay relative to control; details: HOP-62, 48 h, dose 10 µmol/L, read-out: Activity
COLO 205 = experiment: Anticancer activity against human COLO 205 cells assessed as cell growth at 10 umol/L incubated for 48 hrs by SRB assay relative to control; details: COLO 205, 48 h, dose 10 µmol/L, read-out: Activity
MDA-MB-468 = experiment: Anticancer activity against human MDA-MB-468 cells assessed as cell growth at 10 umol/L incubated for 48 hrs by SRB assay relative to control; details: MDA-MB-468, 48 h, dose 10 µmol/L, read-out: Activity
Malme-3M = experiment: Anticancer activity against human Malme-3M cells assessed as cell growth at 10 umol/L incubated for 48 hrs by SRB assay relative to control; details: dose 10 µmol/L, read-out: Activity

| SMILES | growth at 10 µM (BT-549) [%] | growth at 10 µM (SW-620) [%] | growth at 10 µM (IGROV-1) [%] | growth at 10 µM (NCI-H226) [%] | growth at 10 µM (KM12) [%] | growth at 10 µM (NCI/ADR-RES) [%] | growth at 10 µM (SNB-75) [%] | Activity [1] [%] | growth at 10 µM (U-251) [%] | growth at 10 µM (UO-31) [%] | growth at 10 µM (CCRF-CEM) [%] | growth at 10 µM (SK-MEL-5) [%] | growth at 10 µM (A549) [%] | growth at 10 µM (ACHN) [%] | growth at 10 µM (M14) [%] | growth at 10 µM (MCF7) [%] | growth at 10 µM (NCI-H322M) [%] | growth at 10 µM (EKVX) [%] | growth at 10 µM (K562) [%] | growth at 10 µM (SR) [%] | also measured |
| --- | --- | --- | --- | --- | --- | --- | --- | --- | --- | --- | --- | --- | --- | --- | --- | --- | --- | --- | --- | --- | --- |
| COc1cc2c(c(OC)c1OC)-c1ccc(OC)c(=O)cc1[C@@H](NC(C)=O)CC2 [COLCHICINE] | 55.1 | 26.4 | -49 | 31 | 3.7 | -20.9 | 19.3 | 8.4 | 19 | 21.2 | -38.2 | 30.7 | 44.9 | 30.5 | 1.7 | -9.6 | 36.1 | 35.8 | -25.7 | 5.4 | growth at 10 µM (NCI-H522): -64.2%; growth at 10 µM (RPMI-8226): 2.3%; growth at 10 µM (MDA-MB-435): -50.8%; growth at 10 µM (OVCAR-5): 31.2%; growth at 10 µM (HCT-116): 0.2%; growth at 10 µM (Hs-578T): -7.1%; growth at 10 µM (PC-3): -28.6%; growth at 10 µM (HOP-62): 20%; growth at 10 µM (COLO 205): -47.6%; growth at 10 µM (MDA-MB-468): 70.5%; growth at 10 µM (Malme-3M): 39% |
| CCN1C(=O)N(CC)C2C1NN=c1s/c(=C\c3ccc(Cl)cc3Cl)c(=O)n12 (configuration not stated) | 15.9 | 20.5 | -43.3 | 48.8 | 7.5 | 5.7 | 19.7 | 18.2 | 11 | 35.9 | -52.1 | 66.1 | 14.6 | 26.7 | 13.8 | 14 | 42.4 | 50.1 | 83.7 | 12.3 | growth at 10 µM (NCI-H522): -8.8%; growth at 10 µM (RPMI-8226): 16.5%; growth at 10 µM (MDA-MB-435): -24.8%; growth at 10 µM (OVCAR-5): 28.2%; growth at 10 µM (HCT-116): 9.7%; growth at 10 µM (Hs-578T): 15.8%; growth at 10 µM (PC-3): 24.6%; growth at 10 µM (HOP-62): 33.5%; growth at 10 µM (COLO 205): -7.9%; growth at 10 µM (MDA-MB-468): 5.4%; growth at 10 µM (Malme-3M): 50.4% |
